Measurements: patent US8242151B2, “Tricyclic compounds” (Kyowa Hakko Kirin Co., Ltd., priority 2007, dated 2012)

Legend:
[1] = test system: spontaneously hypertensive rats (SHR); test: Antihypertensive action by tail cuff method; assay type: in vivo, rat; settings: oral once a day for 7 days, about 4 to 9 hr after final administration
Protocol: 18- to 22-week-old spontaneously hypertensive rats (SHR) were used.
Before drug administration, the body weight, blood pressure and heart rate of each rat were measured, and the rats were grouped such that these values are almost the same between groups. A solvent (0.5% methylcellulose solution) and a test compound were repeatedly administered orally once a day for 7 days. At about 4 to 9 hr after the final administration, systolic blood pressure and heart rate were non-invasively measured according to the following.
The rats were placed in a cylindrical restrainer, heated to 37° C., and blood pressure and heart rate were measured under resting state using a Tail Cuff Method. For the measurement, a non-invasive blood pressure measurement apparatus (PS-600, Riken Kaihatsu, Tokyo) was used. The blood pressure and heart rate of each rat was measured 5 times, and the average was taken as the value of each rat.

[2] = test system: spontaneously hypertensive rats (SHR); test: Antihypertensive action by telemetry method; assay type: in vivo, rat; settings: oral once a day for 4 days, 24 hr averages
From the text: A telemetry transmitter was indwelled in the abdominal artery of spontaneously hypertensive rats (SHR), and the blood pressure and heart rate were monitored. The rats were acclimated and reared for 4 weeks or more, and only the rats with hypertension were used for the test. Before drug administration, the rats were grouped such that the blood pressure and heart rate of each rat would be of the same levels between the groups. A solvent (0.5% methylcellulose solution) and a test compound were repeatedly administered orally once a day for 4 days. The average systolic blood pressure for 24 hr, average diastolic blood pressure for 24 hr and average heart rate for 24 hr were calculated on each administration day.

[3] = molecular target: T1, GAL4-PPARγ chimeric nuclear receptor (human PPARγ ligand binding region) (Homo sapiens, UniProt P37231); test: Transactivation assay of PPARγ by transient gene transfer (GAL4-PPARγ luciferase reporter); assay type: cell-based; settings: HEK293EBNA cells, 24 hr; concentration showing 50% of efficacy; activity relative to pioglitazone 10 μmol/L = 100%
T1 construct: expressed in transfected cells; host or cells: HEK293EBNA cells
T1 sequence (P37231 174-475 isoform P37231-2): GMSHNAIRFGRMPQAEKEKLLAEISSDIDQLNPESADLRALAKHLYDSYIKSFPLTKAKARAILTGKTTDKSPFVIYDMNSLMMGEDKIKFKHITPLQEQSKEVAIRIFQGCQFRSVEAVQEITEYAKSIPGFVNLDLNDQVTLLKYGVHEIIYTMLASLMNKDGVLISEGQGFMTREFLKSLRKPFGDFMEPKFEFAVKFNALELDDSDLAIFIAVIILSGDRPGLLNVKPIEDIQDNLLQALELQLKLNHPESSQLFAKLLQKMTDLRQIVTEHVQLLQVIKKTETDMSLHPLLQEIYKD
Protocol: The agonist activity of compound (I) to PPARγ was determined by a transactivation assay method using a chimeric nuclear receptor of a DNA binding region of a yeast transcription factor GAL4 and a PPARγ ligand binding region. Specifically, the PPARγ agonist activity of compound (I) was evaluated by the following method based on the method of Lehmann et al. (J Biol. Chem., 1995, vol. 270, page 12953).
HEK293EBNA cells cultured in Dulbecco's Modified Eagle medium (Invitrogen) containing 10 v/v % fetal calf serum (Invitrogen) were used. 30 mL of the above-mentioned cells (density: 1×10^5 cells/mL) were inoculated in a […] culture dish (Iwaki Glass), and cultured overnight. Using SuperFect Transfection Reagent (QIAGEN), a plasmid expressing a GAL4-PPARγ chimeric nuclear receptor fusing 174-475 amino acids, which are human PPARγ ligand binding region, and 1-147 amino acids, which are GAL4 DNA binding region, and a reporter plasmid expressing a GAL4 responsive luciferase were transiently introduced into the cells at a proportion of 4:1. After 5 hr from gene introduction, the cells were detached from the culture dish, and the detached cells (density: 2×10^4 cells/mL) were inoculated by 100 μL in each well of a 96 well white plate (SUMITOMO BAKELITE), and cultured overnight. The medium was removed, compound (I) diluted in various concentrations with serum-free Dulbecco's Modified Eagle medium was added by 100 μL, and the mixture was reacted under a 5% carbon dioxide gas stream (5% CO2) at 37° C. for 24 hr. On the other hand, as a positive control, 10 μmol/L of pioglitazone (100 μL) was added, and the mixture was reacted under a 5% carbon dioxide gas stream (5% CO2) at 37° C. for 24 hr. As a substrate of luciferase, 100 μL of Steady-Glo (Promega) was added to each well and the mixture was thoroughly stirred. Immediately thereafter, the chemical luminescence due to luciferase was measured using TopCount NTX (Packard).
The agonist activity (activity rate (%)) of compound (I) to PPARγ was calculated according to the following formula, as a relative activity when the agonist activity on addition of pioglitazone (10 μmol/L) was 100%.

SMILES	EC50 [3] [nM]	antihypertensive action (systolic blood pressure, tail cuff) [1]	antihypertensive action (blood pressure, telemetry) [2]
CCc1nc2c(C)ccnc2n1Cc1ccc2c(c1)CCc1ccccc1N2C(C)c1nnn[nH]1 (stereo not shown) [Compound 26, 2-(2-ethyl-7-methyl-3H-imidazo[4,5-b]pyridin-3-yl)methyl-5-[1-(1H-tetrazol-5-yl)ethyl]-10,11-dihydro-5H-dibenzo[b,f]azepine]	–	antihypertensive action	–
CCc1nc2c(C)ccnc2n1Cc1ccc2c(c1)CCc1ccccc1/C2=C(/C)c1nnn[nH]1 [Compound 47, (E)-2-(2-ethyl-7-methyl-3H-imidazo[4,5-b]pyridin-3-yl)methyl-5-[1-(1H-tetrazol-5-yl)ethylidene]-10,11-dihydro-5H-dibenzo[a,d]cycloheptene]	1930	antihypertensive action	antihypertensive action
C/C(=C1/c2ccccc2CCc2cc(Cn3c(C4CC4)nc4c(Cl)ccnc43)ccc21)c1noc(=O)[nH]1 [Compound 95, (E)-2-(7-chloro-2-cyclopropyl-3H-imidazo[4,5-b]pyridin-3-yl)methyl-5-[1-(5-oxo-4,5-dihydro-1,2,4-oxadiazol-3-yl)ethylidene]-10,11-dihydro-5H-dibenzo[a,d]cycloheptene]	527	antihypertensive action	antihypertensive action
CCc1nc2c(Cl)cc(C)nc2n1Cc1ccc2c(c1)CCc1ccccc1/C2=C(/C)c1noc(=O)[nH]1 [Compound 44, (E)-2-(7-chloro-2-ethyl-5-methyl-3H-imidazo[4,5-b]pyridin-3-yl)methyl-5-[1-(5-oxo-4,5-dihydro-1,2,4-oxadiazol-3-yl)ethylidene]-10,11-dihydro-5H-dibenzo[a,d]cycloheptene]	784	antihypertensive action	antihypertensive action
CCc1nc2c(C)cc(C)nc2n1Cc1ccc2c(c1)CCc1ccccc1/C2=C(/C)c1nnn[nH]1 [Compound 45, (E)-2-(2-ethyl-5,7-dimethyl-3H-imidazo[4,5-b]pyridin-3-yl)methyl-5-[1-(1H-tetrazol-5-yl)ethylidene]-10,11-dihydro-5H-dibenzo[a,d]cycloheptene]	1090	–	antihypertensive action
CCc1nc2c(C)cc(C)nc2n1Cc1ccc2c(c1)CCc1ccccc1N2C(C)c1nnn[nH]1 (stereo not shown) [Compound 22, 2-(2-ethyl-5,7-dimethyl-3H-imidazo[4,5-b]pyridin-3-yl)methyl-5-[1-(1H-tetrazol-5-yl)ethyl]-10,11-dihydro-5H-dibenzo[b,f]azepine]	1000	–	antihypertensive action
C/C(=C1\c2ccc(Cn3c(C4CC4)nc4c(Cl)ccnc43)cc2COc2ccccc21)c1noc(=O)[nH]1 [Compound 139, (Z)-8-(7-chloro-2-cyclopropyl-3H-imidazo[4,5-b]pyridin-3-yl)methyl-11-[1-(5-oxo-4,5-dihydro-1,2,4-oxadiazol-3-yl)ethylidene]-6,11-dihydrodibenzo[b,e]oxepine]	–	antihypertensive action	–
CCOc1nc2c(Cl)ccnc2n1Cc1ccc2c(c1)COc1ccccc1/C2=C(/C)c1noc(=O)[nH]1 [Compound 138, (Z)-8-(7-chloro-2-ethoxy-3H-imidazo[4,5-b]pyridin-3-yl)methyl-11-[1-(5-oxo-4,5-dihydro-1,2,4-oxadiazol-3-yl)ethylidene]-6,11-dihydrodibenzo[b,e]oxepine]	550	–	antihypertensive action
CCc1nc2c(Cl)cc(C)nc2n1Cc1ccc2c(c1)COc1ccccc1/C2=C(/C)c1noc(=O)[nH]1 [Compound 129, (Z)-8-(7-chloro-2-ethyl-5-methyl-3H-imidazo[4,5-b]pyridin-3-yl)methyl-11-[1-(5-oxo-4,5-dihydro-1,2,4-oxadiazol-3-yl)ethylidene]-6,11-dihydrodibenzo[b,e]oxepine]	611	–	antihypertensive action
C/C(=C1/c2ccccc2CCc2cc(Cn3c(C4CC4)nc4c(C)ccnc43)ccc21)c1nnn[nH]1 [Compound 100, (E)-2-(2-cyclopropyl-7-methyl-3H-imidazo[4,5-b]pyridin-3-yl)methyl-5-[1-(1H-tetrazol-5-yl)ethylidene]-10,11-dihydro-5H-dibenzo[a,d]cycloheptene]	1020	–	antihypertensive action

Further lines, with some results ahead:

EC50 [3] [nM]	SMILES	antihypertensive action (systolic blood pressure, tail cuff) [1]	antihypertensive action (blood pressure, telemetry) [2]
4560	CCc1nc2c(C)cc(C)nc2n1Cc1ccc2c(c1)CCc1ccccc1N2Cc1nnn[nH]1 [Compound S13, 2-(2-ethyl-5,7-dimethyl-3H-imidazo[4,5-b]pyridin-3-yl)methyl-5-(1H-tetrazol-5-yl)methyl-10,11-dihydro-5H-dibenzo[b,f]azepine]	antihypertensive action	antihypertensive action
348	CCc1nc2c(C)cc(C)nc2n1Cc1ccc2c(c1)COc1ccccc1/C2=C\c1noc(=O)[nH]1 [Compound 118, (Z)-8-(2-ethyl-5,7-dimethyl-3H-imidazo[4,5-b]pyridin-3-yl)methyl-11-(5-oxo-4,5-dihydro-1,2,4-oxadiazol-3-yl)methylene-6,11-dihydrodibenzo[b,e]oxepine]	–	antihypertensive action
226	C/C(=C1\c2ccc(Cn3c(C4CC4)nc4c(Cl)cccc43)cc2COc2ccccc21)c1noc(=O)[nH]1 [Compound 147, (Z)-8-(4-chloro-2-cyclopropylbenzimidazol-1-yl)methyl-11-[1-(5-oxo-4,5-dihydro-1,2,4-oxadiazol-3-yl)ethylidene]-6,11-dihydrodibenzo[b,e]oxepine]	–	antihypertensive action
323	CCOc1nc2c(C)cc(C)nc2n1Cc1ccc2c(c1)CCc1ccccc1/C2=C(/C)c1noc(=O)[nH]1 [Compound 86, (E)-2-(2-ethoxy-5,7-dimethyl-3H-imidazo[4,5-b]pyridin-3-yl)methyl-5-[1-(5-oxo-4,5-dihydro-1,2,4-oxadiazol-3-yl)ethylidene]-10,11-dihydro-5H-dibenzo[a,d]cycloheptene]	–	antihypertensive action
336	CCOc1nc2c(Cl)cccc2n1Cc1ccc2c(c1)COc1ccccc1/C2=C(/C)c1noc(=O)[nH]1 [Compound 146, (Z)-8-(4-chloro-2-ethoxybenzimidazol-1-yl)methyl-11-[1-(5-oxo-4,5-dihydro-1,2,4-oxadiazol-3-yl)ethylidene]-6,11-dihydrodibenzo[b,e]oxepine]	–	antihypertensive action
305	CCc1nc2c(C)cc(C)nc2n1Cc1ccc2c(c1)CCc1ccccc1/C2=C\c1nnn[nH]1 [Compound S16, (E)-2-(2-ethyl-5,7-dimethyl-3H-imidazo[4,5-b]pyridin-3-yl)methyl-5-(1H-tetrazol-5-yl)methylene-10,11-dihydro-5H-dibenzo[a,d]cycloheptene]	–	antihypertensive action
